Among the data in US12410160B2 (Gilead Sciences, Inc., priority 2021, dated 2025) are IC50 values, retold here.

The target of experiment [1] is human KHK-C (Homo sapiens (Human), UniProt P50053). In words: KHK Biochemical Assay (IC50), ADP-Glo, KHK-C. To be noted: average of at least two separate assays. How it is done: (§1) The His-tagged fusion protein was expressed using BL21 (DE3) with IPTG induction and purified using Ni-NTA column followed by dialysis into final buffer containing 25 mM Tris-HCl pH 8.0, 250 mM NaCl.
(§2) KHK Biochemical Assay (IC50)
(§3) Compounds were tested for KHK enzyme inhibition in a high-throughput 384-well assay format using the ADP-Glo assay (Promega) in buffer consisting of 50 mM Hepes (pH 7.4), 140 mM KCl, 5 mM MgCl2 and 0.01% Triton-X. 0.2 nM. […] Compounds were serially diluted (1:3) in DMSO.
(§4) The compounds were pre-incubated with 5 μL of 2× final enzyme concentration for 30 minutes before adding 5 μL of 2× final concentration of ATP and fructose. The plates were incubated at room temperature for 4 hours before adding ADP-Glo reagent to quench the enzyme reaction, followed by incubation at room temperature for 1 hour. The ADP-Glo detection reagent was then added to the plates and luminescence was measured on the Envision plate reader after 1 hour.
(In general: ADP-Glo first removes unused ATP, then detects ADP through luciferase.)

Experiment [2] deals with human KHK-A (Homo sapiens (Human), UniProt P50053). Briefly: KHK Biochemical Assay (IC50), ADP-Glo, KHK-A. To be noted: average of at least two separate assays. How it is done: as §1, §2, §3, §4

Molecules are shown by their SMILES.

Sequence of human KHK-C (P50053 whole entry, the tested form may be a part): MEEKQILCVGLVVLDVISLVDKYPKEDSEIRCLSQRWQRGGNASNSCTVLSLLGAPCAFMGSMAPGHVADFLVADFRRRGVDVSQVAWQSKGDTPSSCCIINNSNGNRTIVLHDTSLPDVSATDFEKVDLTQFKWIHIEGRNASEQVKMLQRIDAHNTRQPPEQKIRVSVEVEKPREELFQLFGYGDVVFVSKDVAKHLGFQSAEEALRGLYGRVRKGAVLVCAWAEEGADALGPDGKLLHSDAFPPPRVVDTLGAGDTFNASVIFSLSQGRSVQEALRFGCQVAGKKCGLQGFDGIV
Sequence of human KHK-A (P50053 other isoform, or with tags, fused parts or gaps): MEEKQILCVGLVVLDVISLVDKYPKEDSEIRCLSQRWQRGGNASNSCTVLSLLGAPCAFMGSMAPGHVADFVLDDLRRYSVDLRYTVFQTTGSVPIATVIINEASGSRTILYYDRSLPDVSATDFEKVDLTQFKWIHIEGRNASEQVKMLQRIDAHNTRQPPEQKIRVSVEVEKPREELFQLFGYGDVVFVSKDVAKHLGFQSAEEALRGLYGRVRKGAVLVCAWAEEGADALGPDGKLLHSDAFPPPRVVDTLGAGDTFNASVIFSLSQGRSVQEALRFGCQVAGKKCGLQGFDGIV

For the molecule `C[C@H]1[C@H](O)CN1c1nc(-c2ccc(OC3CC3)c([S@](C)(=N)=O)c2)c2c(n1)C(F)(F)CC2` (single isomer, unassigned) [Example 543], the IC50 was found to be 10.6 nM in experiment [1] and 6.2 nM in experiment [2].

Consider `CC1OC[C@]2(COc3cc(-c4nc(N5C[C@@H](O)[C@@H]5C)nc5c4CCC5(F)F)ccc32)NC1=O` (single isomer, unassigned) [Example 560], for which the half-inhibitory concentration (IC50) in experiment [1] is 16.2 nM; in experiment [2], 75.2 nM.

For `C[C@H]1[C@H](O)CN1c1nc(-c2ccc3c(c2)OC[C@@]32NC(=O)OC2(C)C)c2c(n1)C(F)(F)CC2` (single isomer, unassigned) [Example 567], the half-inhibitory concentration (IC50) in experiment [1] turned out to be 44.3 nM; in experiment [2] it was 65 nM.

With `C[C@H]1[C@H](O)CN1c1nc(-c2ccc3c(c2)C(F)(F)C[C@@H]3NS(C)(=O)=O)c2c(n1)C(F)(F)CC2` (single isomer, unassigned) [Example 634], the 50% inhibitory concentration (IC50) came to 0.9 nM in experiment [1] and 10.8 nM in experiment [2].

Consider `C[C@H]1[C@H](F)CN1c1nc(-c2ccc3c(c2)S(=O)(=O)C[C@@H]3NS(C)(=O)=O)c2c(n1)C(F)(F)CC2` (single isomer, unassigned) [Example 679], for which the values for the IC50 in experiment [1] and in experiment [2] were 0.1 nM and 2.3 nM, respectively.

On to `NC1(c2ccc(-c3nc(N4CC[C@H]4C(F)F)nc4c3CCC4(F)F)cc2)COC1` (single isomer, unassigned) [Example 688], for which the IC50 in experiment [1] was found to be 59.6 nM; in experiment [2], 96.5 nM.

With `NC1(c2ccc(-c3nc(N4CC[C@@H]4C(F)F)nc4c3CCC4(F)F)cc2)CS(=O)(=O)C1` (single isomer, unassigned) [Example 800], the 50% inhibitory concentration (IC50) in experiment [1] (ADP-Glo) worked out at 1.3 nM; in experiment [2] (ADP-Glo), 7.8 nM.

With `NC1(c2ccc(-c3nc(N4CC[C@H]4C(F)F)nc4c3CCC4(F)F)cc2)CS(=O)(=O)C1` (single isomer, unassigned) [Example 801], the results for the IC50 in experiment [1] (ADP-Glo) and in experiment [2] (ADP-Glo) were 52.2 nM and more than 100 nM, respectively.

Consider `C[C@H]1[C@H](O)CN1c1nc(-c2cnc3c(c2)OC[C@H]3NS(C)(=O)=O)c2c(n1)C(F)(F)CC2` (single isomer, unassigned) [Example 822], for which the IC50 in experiment [1] (ADP-Glo) is 24.2 nM; in experiment [2] (ADP-Glo) it was more than 100 nM.

On to `C[C@H]1[C@H](O)CN1c1nc(-c2ccc3c(c2)OC[C@]32NC(=O)N(C)C2=O)c2c(n1)C(F)(F)CC2` (single isomer, unassigned) [Example 827], for which the results for the IC50 in experiment [1] (ADP-Glo) and in experiment [2] (ADP-Glo) were 11.8 nM and more than 100 nM, respectively.

With `COC(=O)N[C@@H]1COc2cc(-c3nc(N4C[C@@H](O)[C@@H]4C)nc4c3CCC4(F)F)cc(OC)c21` (single isomer, unassigned) [Example 833], the IC50 in experiment [1] (ADP-Glo) is 4 nM; in experiment [2] (ADP-Glo), 99.8 nM.

Regarding `COC(=O)N[C@H]1COc2cc(-c3nc(N4C[C@@H](O)[C@@H]4C)nc4c3CCC4(F)F)cc(OC)c21` (single isomer, unassigned) [Example 834], the IC50 in experiment [1] (ADP-Glo) amounted to 17.8 nM; in experiment [2] (ADP-Glo) it was 56.8 nM.

With `COC(=O)CCc1cccc(-c2nc(N3CC[C@@H]3C)nc3c2CCC3)c1` [Example 1, methyl (S)-3-(3-(2-(2-methylazetidin-1-yl)-6,7-dihydro-5H cyclopenta[d]pyrimidin-4-yl)phenyl)propanoate], the concentration for half-maximal inhibition (IC50) in experiment [1] (ADP-Glo) was 689 nM; in experiment [2] (ADP-Glo), 952 nM.

For the molecule `COC(=O)CCc1ccccc1-c1nc(N2CC[C@@H]2C)nc2c1CCC2` [Example 2, methyl (S)-3-(2-(2-(2-methylazetidin-1-yl)-6,7-dihydro-5H-cyclopenta[d]pyrimidin-4-yl)phenyl)propanoate], the IC50 was 30800 nM in experiment [1] (ADP-Glo) and 31000 nM in experiment [2] (ADP-Glo).

Regarding `COC(=O)Cc1cccc(-c2nc(N3CC[C@@H]3C)nc3c2CCC3)c1` [Example 3, methyl (S)-2-(3-(2-(2-methylazetidin-1-yl)-6,7-dihydro-5H-cyclopenta[d]pyrimidin-4-yl)phenyl)acetate], the half-maximal inhibitory concentration (IC50) in experiment [1] (ADP-Glo) was found to be 122 nM; in experiment [2] (ADP-Glo), 121 nM.

For the molecule `C[C@H]1CCN1c1nc2c(c(-c3ccccc3CCC(=O)O)n1)CCC2` [Example 5, (S)-3-(2-(2-(2-methylazetidin-1-yl)-6,7-dihydro-5H-cyclopenta[d]pyrimidin-4-yl)phenyl)propanoic acid], the concentration for half-maximal inhibition (IC50) came out at 7900 nM in experiment [1] (ADP-Glo) and 5920 nM in experiment [2] (ADP-Glo).

As for `C[C@H]1CCN1c1nc2c(c(-c3cccc(CC(=O)O)c3)n1)CCC2` [Example 6, (S)-2-(3-(2-(2-methylazetidin-1-yl)-6,7-dihydro-5H-cyclopenta[d]pyrimidin-4-yl)phenyl)acetic acid], the IC50 amounted to 243 nM in experiment [1] (ADP-Glo) and 285 nM in experiment [2] (ADP-Glo).

In the case of `C[C@H]1CCN1c1nc2c(c(-c3cccc(C#N)c3)n1)CCC2` [Example 7, (S)-3-(2-(2-methylazetidin-1-yl)-6,7-dihydro-5H-cyclopenta[d]pyrimidin-4-yl)benzonitrile], the IC50 turned out to be 373 nM in experiment [1] (ADP-Glo) and 439 nM in experiment [2] (ADP-Glo).

As for `C[C@H]1CCN1c1nc2c(c(-c3ccccc3)n1)CCOC2` [Example 10, (S)-2-(2-methylazetidin-1-yl)-4-phenyl-5,8-dihydro-6H-pyrano[3,4-d]pyrimidine], the IC50 worked out at 1140 nM in experiment [1] (ADP-Glo) and 1150 nM in experiment [2] (ADP-Glo).

For `C[C@H]1CCN1c1nc(-c2ccccc2)c2c(cnn2C)n1` [Example 11, (S)-1-methyl-5-(2-methylazetidin-1-yl)-7-phenyl-1H-pyrazolo[4,3-d]pyrimidine], the 50% inhibitory concentration (IC50) in experiment [1] (ADP-Glo) came to 408 nM; in experiment [2] (ADP-Glo), 453 nM.

With `C[C@H]1CCN1c1nc(-c2ccccc2)c2occc2n1` [Example 12, (S)-2-(2-methylazetidin-1-yl)-4-phenylfuro[3,2-d]pyrimidine], the 50% inhibitory concentration (IC50) in experiment [1] (ADP-Glo) amounted to 2600 nM; in experiment [2] (ADP-Glo), 2620 nM.

As to `C[C@H]1CCN1c1nc2c(c(-c3ccn(CCC(=O)O)n3)n1)CCC2` [Example 24, (S)-3-(3-(2-(2-methylazetidin-1-yl)-6,7-dihydro-5H-cyclopenta[d]pyrimidin-4-yl)-1H-pyrazol-1-yl)propanoic acid], the IC50 turned out to be 420 nM in experiment [1] (ADP-Glo) and 615 nM in experiment [2] (ADP-Glo).

`C[C@H]1CCN1c1nc2c(c(-c3cnn(CCC(=O)O)c3)n1)CCC2` [Example 25, (S)-3-(4-(2-(2-methylazetidin-1-yl)-6,7-dihydro-5H-cyclopenta[d]pyrimidin-4-yl)-1H-pyrazol-1-yl)propanoic acid]: the concentration for half-maximal inhibition (IC50) in experiment [1] (ADP-Glo) was determined as 104 nM; in experiment [2] (ADP-Glo), 142 nM.

Consider `C[C@H]1CCN1c1nc(-c2ccccc2)c2ncsc2n1` [Example 26, (S)-5-(2-methylazetidin-1-yl)-7-phenylthiazolo[5,4-d]pyrimidine], for which the values for the IC50 in experiment [1] (ADP-Glo) and in experiment [2] (ADP-Glo) were 1540 nM and 1860 nM, respectively.

Consider `C[C@H]1CCN1c1nc2c(c(-c3ccccc3)n1)CC(C1CC1)C2` (stereo partly drawn) [Example 30, 6-cyclopropyl-2-((S)-2-methylazetidin-1-yl)-4-phenyl-6,7-dihydro-5H-cyclopenta[d]pyrimidine], for which the IC50 in experiment [1] (ADP-Glo) and in experiment [2] (ADP-Glo) was more than 50000 nM throughout.

On to `C[C@H]1CCN1c1nc(-c2ccccc2)c2c(n1)C1CCC2C1` (stereo partly drawn) [Example 31, 2-((S)-2-methylazetidin-1-yl)-4-phenyl-5,6,7,8-tetrahydro-5,8-methanoquinazoline], for which the IC50 in experiment [1] (ADP-Glo) worked out at 1480 nM; in experiment [2] (ADP-Glo), 935 nM.

As to `C[C@H]1[C@H](O)CN1c1nc2c(c(-c3cccc(C(N)=O)c3)n1)CCC2` [Example 32], the IC50 in experiment [1] (ADP-Glo) is 125 nM; in experiment [2] (ADP-Glo) it was 86.8 nM.

Turning to `C[C@H]1CCN1c1nc(-c2cccc(C(N)=O)c2)c2c(n1)C1CCC2C1` (stereo partly drawn) [Example 33, 3-(2-((S)-2-methylazetidin-1-yl)-5,6,7,8-tetrahydro-5,8-methanoquinazolin-4-yl)benzamide], the values for the IC50 in experiment [1] (ADP-Glo) and in experiment [2] (ADP-Glo) were 240 nM and 272 nM, respectively.

As to `C[C@H]1CCN1c1nc(-c2cn[nH]c2)c2c(cnn2C)n1` [Example 35, (S)-1-methyl-5-(2-methylazetidin-1-yl)-7-(1H-pyrazol-4-yl)-1H-pyrazolo[4,3-d]pyrimidine], the 50% inhibitory concentration (IC50) in experiment [1] (ADP-Glo) turned out to be 220 nM; in experiment [2] (ADP-Glo), 189 nM.

With `C[C@H]1CCN1c1nc(-c2cccc(S(N)(=O)=O)c2)c2c(cnn2C)n1` [Example 37, (S)-3-(1-methyl-5-(2-methylazetidin-1-yl)-1H-pyrazolo[4,3-d]pyrimidin-7-yl)benzenesulfonamide], the values for the IC50 in experiment [1] (ADP-Glo) and in experiment [2] (ADP-Glo) were 213 nM and 224 nM, respectively.

As for `CC(=O)Nc1cccc(-c2nc(N3CC[C@@H]3C)nc3c2CCC3)c1` [Example 40, (S)—N-(3-(2-(2-methylazetidin-1-yl)-6,7-dihydro-5H-cyclopenta[d]pyrimidin-4-yl)phenyl)acetamide], the IC50 in experiment [1] (ADP-Glo) is 57 nM; in experiment [2] (ADP-Glo) it was 54.3 nM.

As for `C[C@H]1CCN1c1nc2c(c(-c3cccc(NS(C)(=O)=O)c3)n1)CCC2` [Example 42, (S)—N-(3-(2-(2-methylazetidin-1-yl)-6,7-dihydro-5H-cyclopenta[d]pyrimidin-4-yl)phenyl)methanesulfonamide], the IC50 in experiment [1] (ADP-Glo) turned out to be 22.7 nM; in experiment [2] (ADP-Glo), 31.8 nM.

As to `C[C@H]1CCN1c1nc2c(c(-c3cccs3)n1)CCC2` [Example 45, (S)-2-(2-methylazetidin-1-yl)-4-(thiophen-2-yl)-6,7-dihydro-5H-cyclopenta[d]pyrimidine], the IC50 in experiment [1] (ADP-Glo) is 108 nM; in experiment [2] (ADP-Glo), 118 nM.

For the molecule `C[C@H]1CCN1c1nc2c(c(-c3cccc(C4CC4C(=O)O)c3)n1)CCC2` (stereo partly drawn) [Example 46, 2-(3-(2-((S)-2-methylazetidin-1-yl)-6,7-dihydro-5H-cyclopenta[d]pyrimidin-4-yl)phenyl)cyclopropane-1-carboxylic acid], the IC50 came to 7.6 nM in experiment [1] (ADP-Glo) and 10 nM in experiment [2] (ADP-Glo).

By IC50 is commonly meant the concentration that inhibits the measured activity by half.
